Assay results published in patent publication US20130065883A1 (Centro Nacional de Investigaceiones Oncologicas (CNIO), priority 2010, published 2013).
Read-outs that look alike come from different tables or passages of the source.

What was measured:
[1] = tested on: H1299 cells overexpressing Pim1 (H1299Pim1); assay: BAD S112 phosphorylation inhibition assay (In Cell ELISA); assay type: cell-based; settings: Homo sapiens, NCI-H1299, inhibition of Bad-phosphorylation, read-out: Cell assay BAD_P H1299 PIM1
panel of 24 kinases = assay: Kinase selectivity testing (percentage inhibition of 24 kinases at 1 μM); assay type: biochemical; settings: proquinase
[2] = Metabolic stability assay; assay type: in vitro ADME; settings: percentage metabolic stability in human liver microsomes
Method: The metabolic stability assay was performed in Wuxi. 1 μM, 15 min. The kinase selectivity testing was performed in ProQinase GmbH, Germany.

tumor cell lines = assay: Combination assay (MTT in vitro cell proliferation, combination index); assay type: cell-based; settings: for EC50: read-out: Pim Inh EC50

What does the source list for `COc1cc(NCC2CCNCC2)nc2c1nnn2-c1cccc(OC(F)(F)F)c1` [2-92]?
EC50 [1]: 0.136 µM; % inhibiton at 1 uM AKT2 (panel of 24 kinases; AKT2, 1 uM): 0%; % inhibiton at 1 uM B_RAF V600E (panel of 24 kinases; B_RAF V600E, 1 uM): 1%; % inhibiton at 1 uM CDK8 CYCC (panel of 24 kinases; CDK8 CYCC, 1 uM): 0%; % inhibiton at 1 uM CHK1 (panel of 24 kinases; CHK1, 1 uM): 0%; % inhibiton at 1 uM CK1 Alpha 1 (panel of 24 kinases; CK1 Alpha 1, 1 uM): 4%; % inhibiton at 1 uM DYRK 1A (panel of 24 kinases; DYRK 1A, 1 uM): 0%; % inhibiton at 1 uM EGF_R (panel of 24 kinases; EGF_R, 1 uM): 1%; % inhibiton at 1 uM FAK (panel of 24 kinases; FAK, 1 uM): 0%; % inhibiton at 1 uM FGFR1 (panel of 24 kinases; FGFR1, 1 uM): 0%; % inhibiton at 1 uM IGF1_R (panel of 24 kinases; IGF1_R, 1 uM): 5%; % inhibiton at 1 uM IKK BETA (panel of 24 kinases; IKK BETA, 1 uM): 0%; % inhibiton at 1 uM INS_R (panel of 24 kinases; INS_R, 1 uM): 0%; % inhibiton at 1 uM JAK2 (panel of 24 kinases; JAK2, 1 uM): 2%; % inhibiton at 1 uM KIT (panel of 24 kinases; KIT, 1 uM): 2%; % inhibiton at 1 uM MEK1 (panel of 24 kinases; MEK1, 1 uM): 1%; % inhibiton at 1 uM MET (panel of 24 kinases; MET, 1 uM): 0%; % inhibiton at 1 uM PAK1 (panel of 24 kinases; PAK1, 1 uM): 8%; % inhibiton at 1 uM PDGFR Alpha (panel of 24 kinases; PDGFR Alpha, 1 uM): 0%; % inhibiton at 1 uM PDK1 (panel of 24 kinases; PDK1, 1 uM): 0%; % inhibiton at 1 uM PLK1 (panel of 24 kinases; PLK1, 1 uM): 0%; % inhibiton at 1 uM SGK1 (panel of 24 kinases; SGK1, 1 uM): 6%; % inhibiton at 1 uM SRC (panel of 24 kinases; SRC, 1 uM): 8%; Stability in HLM [2]: 96.65%; Synergy (tumor cell lines; A549, combined with GDC-0941): +++ (0.1 < CI < 0.3 (+++)); Synergy (tumor cell lines; DU145, combined with Taxotere): ++ (0.3 < CI < 0.7 (++)); EC50 (tumor cell lines; HTC116, colon carcinoma): 10 µM; Synergy (tumor cell lines; HTC116, combined with PD-0325901): +++ (0.1 < CI < 0.3 (+++)); Synergy (tumor cell lines; HTC116, combined with lapatinib): +++ (0.1 < CI < 0.3 (+++)); EC50 (tumor cell lines; Homo sapiens, SK-MEL19, SKMel19, melanoma): 1 µM; Synergy (tumor cell lines; MV4:11, combined with lapatinib): ++ (0.3 < CI < 0.7 (++)); Synergy (tumor cell lines; MiaPaca-2, combined with Gemcitabine): + (0.7 < CI < 1.2 (+)); Synergy (tumor cell lines; NCIH1975, combined with GDC-0941): ++ (0.3 < CI < 0.7 (++)); Synergy (tumor cell lines; PC3, combined with GDC-0941): + (0.7 < CI < 1.2 (+)); Synergy (tumor cell lines; SKMel19, combined with GDC-0879): +++ (0.1 < CI < 0.3 (+++)); Synergy (tumor cell lines; SKMel19, combined with GDC-0941): ++ (0.3 < CI < 0.7 (++))
